Measurements taken from US20090318389A1, “AGONISTS OF THE SPHINGOSINE-1 PHOSPHATE RECEPTOR” (PRAECIS PHARMACEUTICALS INCORPORATED, priority 2006, published 2009).

What was measured:
S1P-3 receptor = target: T1, S1P-3 receptor (Homo sapiens, UniProt Q99500); test: [33P]sphingosine 1-phosphate binding assay, membranes of transfected HEK 293 T cells; details: 2.5 pM [33P]S1P, 60 minutes, room temperature
T1 construct: expressed in transfected cells; host or cells: HEK 293 T cells (crude membranes)
T1 sequence (Q99500 whole entry): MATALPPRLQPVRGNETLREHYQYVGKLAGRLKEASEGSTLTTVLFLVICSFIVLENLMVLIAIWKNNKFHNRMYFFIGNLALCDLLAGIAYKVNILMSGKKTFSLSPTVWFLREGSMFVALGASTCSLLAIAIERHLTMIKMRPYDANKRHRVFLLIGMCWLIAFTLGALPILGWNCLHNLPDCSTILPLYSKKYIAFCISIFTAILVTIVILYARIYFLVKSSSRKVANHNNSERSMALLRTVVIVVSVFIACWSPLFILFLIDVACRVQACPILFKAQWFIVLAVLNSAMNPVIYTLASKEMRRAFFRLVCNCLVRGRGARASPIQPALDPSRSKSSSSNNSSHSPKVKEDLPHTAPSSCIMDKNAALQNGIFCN
Experimental: (§1) The IC50 of a compound is determined using the [^33P]sphingosine 1-phosphate binding assay, as described in Davis, M. D. et al., Sphingosine 1-Phosphate Analogs as Receptor Antagonists. J. Biol. Chem. (2005) 280:9833-9841, the entire contents of which are incorporated herein by this reference.
(§2) The ability of several of the compounds described herein to bind to the S1P-1 or S1P-3 receptor was tested as follows.
(§3) For the membrane preparation, plasmid DNA was transfected into HEK 293 T cells using the FuGENE 6 transfection protocol Briefly, subconfluent monolayers of HEK 293 T cells were transfected with the DNA mixture containing FuGENE 6 (using a 1:3 ratio). The dishes containing the cells were then placed in a tissue culture incubator (5% CO2, 37° C.). The cells were harvested 48 hours after addition of the DNA by scraping in HME buffer (in mM: 20 HEPES, 5 MgCl2, 1 EDTA, pH 7.4, 1 mM PMSF) containing 10% sucrose on ice, and disrupted using aDounce homogenizer. After centrifugation at 800×g, the supernatant was diluted with HME without sucrose and centrifuged at 17,000×g for 1 hour. This crude membrane pellet was resuspended in HME with sucrose, aliquoted, and snap-frozen by immersion in liquid nitrogen. The membranes were stored at −70° C. Protein concentration was determined spectroscopically by Bradford protein assay.
(§4) For the binding assay, [^33P]sphingosine 1-phosphate (obtained from American Radiolabeled Chemicals, Inc) was added to membranes in 200 μL in 96-well plates with assay concentrations of 2.5 pM [^33P]sphingosine 1-phosphate, 4 mg/mL BSA, 50 mM HEPES, pH 7.5, 100 mM NaCl, 5 mM MgCl2, and 5 μg of protein. Binding was performed for 60 minutes at room temperature with gentle mixing and terminated by collecting the membranes onto GF/B filter plates. After drying the filter plates for 10 minutes, 50 μL of Microscint 40 was added to each well, and filter-bound radionuclide was measured on a Packard Top Count. Nonspecific binding was defined as the amount of radioactivity remaining in the presence of excess of unlabeled S1P.

S1P-1 receptor [1] = target: T2, S1P-1 receptor (Homo sapiens, UniProt P21453); test: as above; details: for IC50: binding, 2.5 pM [33P]S1P, 60 minutes, room temperature; for IC50/IC50 (S1P-3/S1P-1): selectivity for S1P-1 over S1P-3
T2 construct: expressed in transfected cells; host or cells: HEK 293 T cells (crude membranes)
T2 sequence (P21453 whole entry): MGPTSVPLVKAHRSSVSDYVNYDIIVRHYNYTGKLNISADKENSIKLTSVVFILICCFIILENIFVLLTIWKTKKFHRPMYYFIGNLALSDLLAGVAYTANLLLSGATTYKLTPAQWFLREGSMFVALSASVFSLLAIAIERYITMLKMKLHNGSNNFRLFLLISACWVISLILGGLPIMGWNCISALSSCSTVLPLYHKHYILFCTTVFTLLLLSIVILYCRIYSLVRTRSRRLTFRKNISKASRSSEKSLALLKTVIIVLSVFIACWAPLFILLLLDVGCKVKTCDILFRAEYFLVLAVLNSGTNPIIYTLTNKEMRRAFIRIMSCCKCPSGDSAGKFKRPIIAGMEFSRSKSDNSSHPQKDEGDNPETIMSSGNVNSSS
Experimental: as §1, §2, §3, §4

S1P-1 receptor [2] = target: T2, S1P-1 receptor; test: 35S-GTPγS binding assay (EC50, agonism); type: biochemical; details: 35S-GTPγS binding assay as described in WO 03/061567
Experimental: The terms “agonist” or “S1P-1 receptor agonist” as used herein include the compounds described herein which bind to and/or agonize the S1P-1 receptor. The EC50 of a compound is determined using the ^35S-GTPγS binding assay, as described in WO 03/061567, the entire contents of which are incorporated herein by reference.

Row | SMILES | IC50 (S1P-3 receptor) | IC50 (S1P-1 receptor [1]) | IC50/IC50 (S1P-3/S1P-1) (S1P-1 receptor [1]) | EC50 (S1P-1 receptor [2])
1 | C[C@](N)(COP(=O)(O)O)c1ncc(-c2ccc(Sc3cccc(OCc4ccccc4)c3)cc2Cl)[nH]1 | 100 to 1000 nM | 0.001 to 100 nM | +++ (great receptor selectivity (>1,000 fold)) | 
2 | C[C@](N)(COP(=O)(O)O)c1ncc(-c2ccc(Sc3cccc(OCc4ccccc4)c3)c(C(F)(F)F)c2)[nH]1 | 1000 to 10000 nM | 0.001 to 100 nM | +++ (great receptor selectivity (>1,000 fold)) | 
3 | C[C@](N)(COP(=O)(O)O)c1nnc(-c2ccc(Sc3cccc(OCc4ccccc4)c3)c(C(F)(F)F)c2)s1 | > 10000 nM | 0.001 to 100 nM |  | 
4 | C[C@](N)(COP(=O)(O)O)c1nnc(-c2ccc(Sc3cccc(OCc4ccccc4)c3)cc2Cl)s1 | 100 to 1000 nM | 0.001 to 100 nM | ++ (good receptor selectivity (>100-1,000 fold)) | 
5 | C[C@](N)(COP(=O)(O)O)c1nnc(-c2ccc(Sc3cccc(O)c3)cc2Cl)s1 | > 10000 nM | 100 to 1000 nM |  | 
6 | C[C@](N)(COP(=O)(O)O)C(=O)Nc1ccc(Sc2cccc(OCc3ccccc3)c2)cc1Cl [compound 7a] |  |  |  | 6.9 nM
